Reference: patent US7705119B1, “Compositions and methods useful for treating circulatory and hypovolemic shock” (University of Kentucky Research Foundation, priority 2007, dated 2010)
Entries after “also recorded” stand apart in the source; their conditions may differ. Square brackets hold non-standard residues; d marks the D form. Peptide text beside a SMILES is read from it.

Tests used:
Sprague-Dawley rats [1] = test: 30 minute inhibitor pre-treatment before 5.5 mg/kg Delt-E post hemorrhage injection; assay type: in vivo, rat; details: for Maximum HR in BPM ± S.E. / Maximum MAP in mmHg ± S.E. / Survival Time in minutes ± S.E.: then 5.5 mg/kg Delt-E post hemorrhage
Source text: The hemorrhagic shock model used was a volume-controlled model similar to that of Summers et al. Acad Emerg Med. 10:587-93 (2003). Forty-six male Sprague-Dawley rats (about 341-411 grams) were acclimated to a laboratory environment for a week. In dwelling heparinized PE 10 catheters were placed in the femoral artery and the femoral vein of anesthetized rats. The two catheters were combined and exited suprascapularly, tied in place with braided silk, and covered with a piece of hypoallergenic mesh to prevent kinking. Rats were then placed in recovery cages for 24 hr, allowed access to food and water, and allowed unrestricted access to both catheters. The femoral artery catheter was used for volume-controlled hemorrhage and blood pressure measurements and the femoral vein catheter was used for Delt-E infusion. Each selected animal was randomly assigned 1 of […] post hemorrhage treat groups: 1 mL/100 g saline control (n=6), 2.85 mg/kg Delt-E (n=6), 4.2 mg/kg Delt-E (n=6), 5.5 mg/kg Delt-E (n=6), and 14 mg/kg Delt-E (n=6). Animals were also selected and randomly assigned to 1 of 4, 30-minute pre-treatment inhibitor groups: Naltriben Methane Sulfonate (NTB) (n=4), Naltrexone (n=4), Glibenclamide (n=4), and 7-Dehydrobenzylidine naltrexone (BNTX) (n=4) followed by a 5.5 mg/kg injection of Delt-E.
Opioid Inhibitors: The opioid inhibitors (naltrexone, naltriben methane sulfonate (NTB) and 7 Dehydrobenzylidine naltrexone (BNTX) and Glibenclamide were administered 30 minutes prior to hemorrhage. MAP and HR were recorded continuously before hemorrhage to ensure no adverse affects on MAP or HR occurred as a result of the pre-injection. At the end of 30 minutes, volume-controlled hemorrhage was induced followed by a post hemorrhage injection of 5.5 mg/kg Delt-E, the optimal dose found to increase hemodynamic stability. Naltrexone (10 mg/kg, Sigma-Aldrich), NTB (1 mg/kg, Sigma-Aldrich), and BNTX (1 mg/kg, Tocris Bioscience) were used as 30 minute pre-injection opioid receptor antagonists. Glibenclamide (10 mg/kg, Sigma Aldrich) was used as a KATP channel blocker.
Data Analysis: Statistical analysis was preformed using SPSS software with P value <0.05 being considered significant. The survival, MAP, HR and lactic acid values were analyzed using repeated measures analysis of variance (ANOVA) between groups to identify differences between groups. To evaluate differences between means, the ANOVA with post hoc least square differences were used (LSD analysis).

KATP channels = details: Wild et al. 1991; cited from earlier work
Sprague-Dawley rats [2] = test: Post hemorrhage Delt-E infusion, volume-controlled hemorrhagic shock model without fluid resuscitation; assay type: in vivo, rat; details: 14.0 mg/kg i.v. post hemorrhage
Source text: A murine hemorrhagic shock model was used to evaluate the effects of administration of Deltorphin-E (Delt-E), without concomitant fluid resuscitation, on hemodynamic status, plasma lactate levels, and survival rates.
The hemorrhagic shock model used was a volume-controlled model similar to that of Summers et al. Acad Emerg Med. 10:587-93 (2003). Forty-six male Sprague-Dawley rats (about 341-411 grams) were acclimated to a laboratory environment for a week. In dwelling heparinized PE 10 catheters were placed in the femoral artery and the femoral vein of anesthetized rats. […]
Treatment: Twenty-four hours after catheter placement, test rats (n=24) were infused in the femoral vein with either 2.85, 4.2, 5.5 or 14 mg/kg of Delt-E (Tyr-D-Ala-Phe-Ala-Ile-Gly-Asp-Phe-Ser-Ile-NH2; SEQ ID NO: 1) dissolved in 1.0 ml Lactated Ringers (LR) solution pH 7.4. […] Prior to hemorrhage MAP and HR were recorded to establish baseline levels. […] After the final mL of blood was removed the various venous catheter treatment injections were administered, MAP and HR were recorded continuously for the duration of survival or up to 6 hours.
Biomarker protocols: Survival time was determined by the post hemorrhage time after injection until death, or a predetermined 360 minute survival interval. […] Pulse pressure was determined by the difference (mmHg) between the systolic and diastolic pressure during a single cardiac cycle. […]

[3] = inhibitor 1 mg/kg 30 min prior to hemorrhage
[4] = inhibitor 10 mg/kg 30 min prior to hemorrhage

Row | Molecule | blockade of post hemorrhage hemodynamic recovery / survival benefits of 5.5 mg/kg Delt-E (Sprague-Dawley rats [1]; [3]) | Maximum HR in BPM ± S.E. (Sprague-Dawley rats [1]; [3]) | Maximum MAP in mmHg ± S.E. (Sprague-Dawley rats [1]; [3]) | Survival Time in minutes ± S.E. (Sprague-Dawley rats [1]; [3]) | blockade of post hemorrhage hemodynamic recovery / survival benefits of 5.5 mg/kg Delt-E (Sprague-Dawley rats [1]; [4]) | Maximum HR in BPM ± S.E. (Sprague-Dawley rats [1]; [4]) | Maximum MAP in mmHg ± S.E. (Sprague-Dawley rats [1]; [4]) | Survival Time in minutes ± S.E. (Sprague-Dawley rats [1]; [4]) | other results
1 | Oc1ccc2c3c1O[C@H]1c4oc5ccccc5c4C[C@@]4(O)[C@@H](C2)N(CC2CC2)CC[C@]314 [NTB, Naltriben Methane Sulfonate] | blocked | 423 ± 68 BPM | 37 ± 13 mmHg | 58 ± 12 min |  |  |  |  | 
2 | O=C1/C(=C/c2ccccc2)C[C@@]2(O)[C@H]3Cc4ccc(O)c5c4[C@@]2(CCN3CC2CC2)[C@H]1O5 [BNTX, 7-Dehydrobenzylidine naltrexone] | did not block | 400 ± 77 BPM | 55 ± 12 mmHg | 356 ± 3 min |  |  |  |  | 
3 | O=C1CC[C@@]2(O)[C@H]3Cc4ccc(O)c5c4[C@@]2(CCN3CC2CC2)[C@H]1O5 [Naltrexone] |  |  |  |  | partially blocked | 419 ± 75 BPM | 49 ± 8 mmHg | 95 ± 11 min | 
4 | DPDPE |  |  |  |  |  |  |  |  | cardioprotective effect in the presence of Glibenclamide (KATP channels): could be negated by Glibenclamide
5 | COc1ccc(Cl)cc1C(=O)NCCc1ccc(S(=O)(=O)NC(=O)NC2CCCCC2)cc1 [Glibenclamide] |  |  |  |  | did not alter the survival advantage; also recorded: not blocked | 393 ± 43 BPM | 56 ± 10 mmHg | 347 ± 15 min | 
6 | CC[C@H](C)[C@H](NC(=O)[C@H](CO)NC(=O)[C@H](Cc1ccccc1)NC(=O)[C@H](CC(=O)O)NC(=O)CNC(=O)[C@@H](NC(=O)[C@H](C)NC(=O)[C@H](Cc1ccccc1)NC(=O)[C@@H](C)NC(=O)[C@@H](N)Cc1ccc(O)cc1)[C@@H](C)CC)C(N)=O [Delt-E, Tyr-(D-Ala)-Phe-Ala-Ile-Gly-Asp-Phe-Ser-Ile-NH2] (H-Y[dA]FAIGDFSI-NH2) |  |  |  |  |  |  |  |  | Toxicity of dose (Sprague-Dawley rats [2]): toxic
